The text below walks through data of patent publication US11629146B2, “Substituted [1,2,4]triazolo[4,3-a]pyrazines as modulators of sodium channel activity” (Praxis Precision Medicines, Inc., priority 2016, dated 2023).

The target of data set [1] is human NaV1.5 late sodium current (INaL) (Homo sapiens (Human), UniProt Q14524). As to the kind of experiment: INaL inhibition at hNaV1.5, PatchXpress electrophysiology. In kind it is cell-based. To be noted: HEK-293 cells expressing recombinant human NaV1.5, HEK-293 cells expressing hNaV1.5, late current evoked by 300 nM ATX-II, read-out: INaL v1.5 (1 μM, % Inhibition).

Data set [2] addresses human NaV1.6 (hNaV1.6) (Homo sapiens (Human), UniProt Q9UQD0). As to the kind of experiment: INaL inhibition at hNaV1.6, PatchXpress electrophysiology. In kind it is cell-based. The method in brief:
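Recombinant hNaV1.6 in HEK-293 cells recorded by automated patch clamp, with late current evoked by 300 nM ATX-II. INaL taken as mean current over the final 20 ms of the test pulse. Steady-state inhibition expressed as […].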

A short description of data set [3]: PK rat clearance experiment. Type of data set: in vivo. The settings on record: male Sprague-Dawley rats, single intravenous bolus 0.5 mg/kg, plasma.
Description: The IV dosing solution was prepared freshly on the dosing day. Test article (0.5 mg/kg) was prepared in a vehicle, for example, consisting of 5% DMSO/5% solutol/90% water. The concentrations of test article in all dosing solutions were determined by HPLC/UV. Three male Sprague-Dawley rats were used in this study. The animals were confirmed healthy before being assigned to the study. Each animal was given a unique identification number which was marked on the tail or the ear, and written on the cage card. All animals were fasted overnight before dosing and the food was returned at 4 hours post dosing. Water was provided to all animals ad libitum during the fasting period. Animals were weighed prior to dose administration on the day of dosing for calculating the actual dose volume. The body weights were in the range from 212 g to 223 g for males. All animals received test article by single intravenous bolus administration at 0.5 mg/kg. Approximately 0.2 mL blood was collected at each time point via jugular vein from each study animal. […] All blood samples were transferred into pre-labeled plastic micro centrifuge tubes and mixed with the pre-loaded anti-coagulant K2EDTA (5 μL, 0.5 M). Plasma samples were then prepared by centrifuging the blood samples. All plasma samples were then quickly frozen over dry ice and kept at −60° C. or lower until LC/MS/MS analysis. The concentrations of test article in plasma were determined by using a quantitative bioanalytical LC/MS/MS method. The lower limit of quantitation (LLOQ) for test article in plasma was 1 ng/mL, and the upper limit of quantitation (ULOQ) in plasma was 3000 ng/mL. The plasma concentration of test article in rats was subjected to a non compartmental pharmacokinetic analysis by using the Phoenix WinNonlin software (version 6.3, Pharsight, Mountain View, Calif.). The linear/log trapezoidal rule was applied in obtaining the PK parameters.
Data set [4] has as its target CYP1A2 (Homo sapiens (Human), UniProt P05177). As to the kind of experiment: CYP1A2 inhibition in human liver microsomes. Type of data set: in vitro ADME. The settings on record: pooled human liver microsomes, marker substrate Phenacetin. Here is the method:
The specific marker metabolites are measured with LC/MS/MS. The remaining enzymatic activities and inhibitory potency IC50 are determined. Microsomes are removed out of the −80° C. freezer to thaw on ice and 20 μL of the substrates solution added to the corresponding wells. […] Then 158 μL of the HLM working solution was added to all wells of the incubation plate. The plate was pre-warmed for about 10 min using a 37° C. water bath. Then 20 μL of the NADPH cofactor solution was added to all incubation wells, mixed and incubated for 10 minutes at 37° C. water bath. The reaction is terminated by adding 400 μL cold stop solution (200 ng/mL Tolbutamide and 200 ng/mL Labetalol in ACN). […] Finally 200 μL of the supernatant was transferred to 100 μL HPLC water, shaken for 10 min and analyzed by LC/MS/MS. […] Equation for three parameters logistic sigmoidal curve: […]
On the technique in general: Liver microsomes are a subcellular fraction often used to study metabolism.

[5] abbreviates: HEK293, 1 μM, HEK-293 cells expressing hNaV1.6, late current evoked by 300 nM ATX-II, read-out: INaL v1.6 (1 μM, % Inhibition).

Like-named read-outs stand apart in the source and are kept apart here.

Sequence of human NaV1.5 late sodium current (INaL) (Q14524 whole entry): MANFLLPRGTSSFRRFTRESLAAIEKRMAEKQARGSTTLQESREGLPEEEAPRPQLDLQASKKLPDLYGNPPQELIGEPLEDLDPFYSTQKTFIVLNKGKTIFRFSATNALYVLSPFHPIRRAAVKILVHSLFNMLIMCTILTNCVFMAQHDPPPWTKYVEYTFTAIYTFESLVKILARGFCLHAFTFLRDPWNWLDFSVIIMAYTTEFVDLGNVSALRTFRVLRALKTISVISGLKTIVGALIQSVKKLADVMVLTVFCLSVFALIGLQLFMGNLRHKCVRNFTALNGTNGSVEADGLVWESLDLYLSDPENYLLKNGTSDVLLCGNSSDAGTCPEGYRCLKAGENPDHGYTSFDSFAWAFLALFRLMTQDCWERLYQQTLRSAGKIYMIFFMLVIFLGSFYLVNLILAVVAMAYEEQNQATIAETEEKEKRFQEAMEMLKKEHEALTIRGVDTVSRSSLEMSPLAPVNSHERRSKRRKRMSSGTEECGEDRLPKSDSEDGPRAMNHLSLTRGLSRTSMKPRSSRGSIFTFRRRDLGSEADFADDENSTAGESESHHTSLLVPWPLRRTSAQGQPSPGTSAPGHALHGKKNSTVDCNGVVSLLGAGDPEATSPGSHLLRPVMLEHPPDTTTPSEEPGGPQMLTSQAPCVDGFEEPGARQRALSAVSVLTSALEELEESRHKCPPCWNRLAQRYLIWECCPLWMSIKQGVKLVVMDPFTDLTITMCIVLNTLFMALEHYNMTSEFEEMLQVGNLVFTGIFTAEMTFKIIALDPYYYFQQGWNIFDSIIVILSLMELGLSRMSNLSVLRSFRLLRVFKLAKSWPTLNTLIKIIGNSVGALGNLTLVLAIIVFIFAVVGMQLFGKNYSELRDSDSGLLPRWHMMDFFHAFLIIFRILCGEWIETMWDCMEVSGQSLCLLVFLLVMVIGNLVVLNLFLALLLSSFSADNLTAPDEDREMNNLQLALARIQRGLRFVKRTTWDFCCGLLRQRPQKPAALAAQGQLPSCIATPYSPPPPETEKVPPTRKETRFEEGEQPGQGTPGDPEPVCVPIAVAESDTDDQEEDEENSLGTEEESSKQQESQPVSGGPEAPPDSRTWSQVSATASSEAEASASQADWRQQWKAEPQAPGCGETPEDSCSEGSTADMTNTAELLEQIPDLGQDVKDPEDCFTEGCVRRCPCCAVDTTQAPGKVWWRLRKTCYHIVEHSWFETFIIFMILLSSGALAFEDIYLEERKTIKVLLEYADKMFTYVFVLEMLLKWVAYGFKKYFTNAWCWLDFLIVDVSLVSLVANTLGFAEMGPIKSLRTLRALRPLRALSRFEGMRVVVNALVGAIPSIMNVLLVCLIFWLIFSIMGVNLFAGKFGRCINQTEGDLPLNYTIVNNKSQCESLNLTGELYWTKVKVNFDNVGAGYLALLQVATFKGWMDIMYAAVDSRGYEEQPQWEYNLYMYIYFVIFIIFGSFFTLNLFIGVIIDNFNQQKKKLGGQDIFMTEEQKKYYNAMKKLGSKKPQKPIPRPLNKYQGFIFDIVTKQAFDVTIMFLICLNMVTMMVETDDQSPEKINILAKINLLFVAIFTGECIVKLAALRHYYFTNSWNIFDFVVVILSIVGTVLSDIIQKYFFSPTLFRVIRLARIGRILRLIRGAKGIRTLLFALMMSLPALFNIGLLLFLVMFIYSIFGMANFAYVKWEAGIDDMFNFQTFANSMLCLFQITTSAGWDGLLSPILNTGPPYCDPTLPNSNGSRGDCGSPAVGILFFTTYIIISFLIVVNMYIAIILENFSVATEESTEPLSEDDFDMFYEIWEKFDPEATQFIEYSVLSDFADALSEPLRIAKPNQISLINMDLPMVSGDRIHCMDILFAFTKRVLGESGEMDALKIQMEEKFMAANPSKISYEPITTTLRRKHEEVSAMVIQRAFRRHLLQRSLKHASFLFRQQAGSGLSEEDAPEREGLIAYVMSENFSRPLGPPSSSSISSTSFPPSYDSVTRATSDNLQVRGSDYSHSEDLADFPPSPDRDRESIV
Sequence of CYP1A2 (P05177 whole entry): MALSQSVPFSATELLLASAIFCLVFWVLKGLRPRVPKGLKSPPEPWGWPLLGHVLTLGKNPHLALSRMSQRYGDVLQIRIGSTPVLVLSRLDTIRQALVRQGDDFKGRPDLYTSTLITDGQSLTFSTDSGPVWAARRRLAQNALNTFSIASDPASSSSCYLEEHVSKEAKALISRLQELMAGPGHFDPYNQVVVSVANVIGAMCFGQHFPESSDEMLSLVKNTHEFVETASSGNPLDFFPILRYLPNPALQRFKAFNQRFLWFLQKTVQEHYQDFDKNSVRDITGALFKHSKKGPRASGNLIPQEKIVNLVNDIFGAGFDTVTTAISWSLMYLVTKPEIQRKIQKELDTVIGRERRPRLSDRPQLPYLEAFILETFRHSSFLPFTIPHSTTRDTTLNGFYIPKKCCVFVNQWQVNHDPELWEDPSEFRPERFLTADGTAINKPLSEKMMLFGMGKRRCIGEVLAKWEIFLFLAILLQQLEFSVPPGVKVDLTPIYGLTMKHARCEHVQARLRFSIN
Sequence of human NaV1.6 (hNaV1.6) (Q9UQD0 whole entry): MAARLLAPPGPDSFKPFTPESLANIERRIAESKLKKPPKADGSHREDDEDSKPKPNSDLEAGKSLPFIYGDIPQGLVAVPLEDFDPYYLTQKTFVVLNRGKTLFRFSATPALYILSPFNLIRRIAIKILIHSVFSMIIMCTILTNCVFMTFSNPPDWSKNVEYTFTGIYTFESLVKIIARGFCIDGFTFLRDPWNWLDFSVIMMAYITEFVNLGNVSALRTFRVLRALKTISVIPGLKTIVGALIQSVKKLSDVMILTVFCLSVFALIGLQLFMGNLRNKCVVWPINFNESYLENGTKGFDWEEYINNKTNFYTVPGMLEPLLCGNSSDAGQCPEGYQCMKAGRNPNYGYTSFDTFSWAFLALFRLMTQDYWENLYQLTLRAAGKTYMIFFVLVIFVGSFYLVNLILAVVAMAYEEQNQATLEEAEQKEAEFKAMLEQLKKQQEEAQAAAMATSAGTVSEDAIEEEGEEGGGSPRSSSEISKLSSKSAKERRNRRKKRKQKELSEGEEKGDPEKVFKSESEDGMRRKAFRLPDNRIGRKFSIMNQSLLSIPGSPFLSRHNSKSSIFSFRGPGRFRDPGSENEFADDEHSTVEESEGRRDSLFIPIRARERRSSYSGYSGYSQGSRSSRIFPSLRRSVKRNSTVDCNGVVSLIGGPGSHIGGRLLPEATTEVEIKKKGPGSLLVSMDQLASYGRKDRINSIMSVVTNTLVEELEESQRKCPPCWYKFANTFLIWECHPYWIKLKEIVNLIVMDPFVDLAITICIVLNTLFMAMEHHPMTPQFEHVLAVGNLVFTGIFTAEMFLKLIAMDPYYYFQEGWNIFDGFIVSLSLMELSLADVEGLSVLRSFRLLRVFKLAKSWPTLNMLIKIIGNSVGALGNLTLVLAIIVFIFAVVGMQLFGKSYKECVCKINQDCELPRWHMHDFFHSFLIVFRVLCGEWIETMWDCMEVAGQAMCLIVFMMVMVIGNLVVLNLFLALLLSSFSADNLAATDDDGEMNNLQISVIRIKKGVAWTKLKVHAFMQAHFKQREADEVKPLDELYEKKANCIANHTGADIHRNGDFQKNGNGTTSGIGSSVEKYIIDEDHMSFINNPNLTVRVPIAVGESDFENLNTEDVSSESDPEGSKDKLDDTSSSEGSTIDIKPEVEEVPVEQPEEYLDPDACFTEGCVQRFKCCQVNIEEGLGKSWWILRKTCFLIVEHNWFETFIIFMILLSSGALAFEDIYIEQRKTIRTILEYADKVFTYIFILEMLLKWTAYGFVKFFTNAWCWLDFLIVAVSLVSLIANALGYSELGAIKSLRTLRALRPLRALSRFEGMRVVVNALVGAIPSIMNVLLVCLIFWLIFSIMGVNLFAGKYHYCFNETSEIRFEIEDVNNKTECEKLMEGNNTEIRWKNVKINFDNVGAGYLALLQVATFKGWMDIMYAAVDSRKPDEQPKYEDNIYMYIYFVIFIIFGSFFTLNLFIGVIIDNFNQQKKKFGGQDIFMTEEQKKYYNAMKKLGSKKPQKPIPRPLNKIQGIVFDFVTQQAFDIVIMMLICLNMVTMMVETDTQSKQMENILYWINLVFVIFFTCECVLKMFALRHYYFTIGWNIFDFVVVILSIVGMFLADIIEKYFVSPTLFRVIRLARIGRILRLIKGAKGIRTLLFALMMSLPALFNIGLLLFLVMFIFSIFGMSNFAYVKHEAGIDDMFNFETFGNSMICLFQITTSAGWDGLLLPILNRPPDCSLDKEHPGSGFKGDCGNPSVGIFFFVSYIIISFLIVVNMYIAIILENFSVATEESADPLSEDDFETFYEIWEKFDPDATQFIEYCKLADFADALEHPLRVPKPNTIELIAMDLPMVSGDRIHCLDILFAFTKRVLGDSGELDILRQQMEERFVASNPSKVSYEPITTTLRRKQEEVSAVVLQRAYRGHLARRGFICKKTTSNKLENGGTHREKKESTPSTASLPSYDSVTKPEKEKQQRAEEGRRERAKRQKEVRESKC

On to `Fc1c(OC(F)(F)F)cccc1-c1ccc2nnc(C(F)(F)F)n2n1` [Compound 19], for which the results for the inhibition at 1 µM in data set [1] and in data set [2] (setting [5]) were less than 50% and less than 30%, respectively.

With `Cc1cc(OC(F)(F)F)ccc1-c1cn2c(C(F)F)nnc2cn1` [Compound 49], the inhibition (as a rule, the relative decrease from the control value, in per cent) at 1 µM in data set [2] (setting [5]) was more than 70%. Besides, in data set [3], the clearance (usually the volume of plasma or blood freed of the substance per unit of time) worked out at 7.6 mL/min/kg and the half-life (in general, the time in which the quantity being followed falls by half) is 8.1 h. For the same compound, the IC50 (commonly the point on the concentration scale where inhibition reaches its midpoint) in data set [4] was 15 to 30 µM.

In the case of `FC(F)(F)COc1ccc(-c2ccc3nnc(C4CC4)n3n2)cn1` [Compound 8], the inhibition at 1 µM in data set [1] was more than 50%; in data set [2] (setting [5]) it was 30 to 70%.

As for `Cc1cc(OC(F)(F)F)ccc1-c1cn2c(C(F)(F)F)nnc2cn1` [Compound 63], in data set [2] (setting [5]), the inhibition at 1 µM was more than 70%. Also, in data set [3], the clearance worked out at 8.8 mL/min/kg and the half-life is 10.2 h. In addition, in data set [4], the IC50 lay within 15 to 30 µM.

Consider `COc1cc(OC(F)(F)F)ccc1-c1ccc2nnc(C3CC3(F)F)n2n1` (stereo not shown) [Compound 15], for which the inhibition at 1 µM in data set [1] is more than 50%; in data set [2] (setting [5]), more than 70%.

On to `C[C@@H](Oc1ncc(-c2cn3c(C(F)(F)F)nnc3cn2)cc1F)C(F)(F)F` (single isomer, unassigned) [Compound 124], for which the inhibition at 1 µM in data set [2] (setting [5]) is more than 70%. In data set [3], this compound showed a clearance of 15.9 mL/min/kg and a half-life of 6.5 h. Also, the IC50 in data set [4] is more than 30 µM.

As to `FC(F)(F)c1ccc(-c2ccc3nnc(C(F)(F)F)n3n2)cc1` [Compound 1], the figures for the inhibition at 1 µM in data set [1] and in data set [2] (setting [5]) were more than 50% and more than 70%, respectively.

As to `C[C@H](Oc1ncc(-c2ccc3nnc(C(F)(F)F)n3n2)cc1F)C(F)(F)F` (single isomer, unassigned) [Compound 127], in data set [2] (setting [5]), the inhibition at 1 µM was more than 70%. This compound had a 50% inhibitory concentration (IC50) in data set [4] of more than 30 µM.

As for `COC(F)(F)c1nnc2ccc(-c3ccc(OC(F)(F)F)cc3)nn12` [Compound 41], the inhibition at 1 µM in data set [2] (setting [5]) was more than 70%. The half-maximal inhibitory concentration (IC50) in data set [4] is less than 1 µM.

Regarding `C[C@@H](Oc1ncc(-c2ccc3nnc(C(F)(F)F)n3n2)cc1F)C(F)(F)F` (single isomer, unassigned) [Compound 126], in data set [2] (setting [5]), the inhibition at 1 µM was more than 70%. Also, the IC50 in data set [4] was more than 30 µM.

As to `Fc1cc(-c2ccc3nnc(C(F)(F)F)n3n2)cnc1OCC(F)(F)F` [Compound 107], the inhibition at 1 µM in data set [2] (setting [5]) is more than 70%. In data set [3], this compound gave a clearance of 13.9 mL/min/kg and a half-life of 1.9 h. In data set [4], this compound gave an IC50 of more than 30 µM.

On to `Fc1cc(OC(F)(F)F)ccc1-c1cn2c(C(F)(F)F)nnc2cn1` [Compound 72], for which the inhibition at 1 µM in data set [2] (setting [5]) is less than 30%. The concentration for half-maximal inhibition (IC50) in data set [4] lay in the range of 1 to 15 µM.

Take `COC(F)(F)c1nnc2ccc(-c3cnc(OCC(F)(F)F)c(F)c3)nn12` [Compound 96]: the inhibition at 1 µM in data set [2] (setting [5]) was more than 70%. The IC50 in data set [4] is more than 30 µM.

In the case of `Cc1cc(C2(C#N)CC2)ccc1-c1ccc2nnc(C(F)(F)F)n2n1` [Compound 105], the inhibition at 1 µM in data set [2] (HEK293, read-out: INaL v1.6 (1 μM, % Inhibition)) was 30 to 70%. The half-inhibitory concentration (IC50) in data set [4] fell in the range of 15 to 30 µM.

Take `FC1(F)CC(Oc2ccc(-c3ccc4nnc(C(F)(F)F)n4n3)cn2)C1` [Compound 65]: the inhibition at 1 µM in data set [2] (setting [5]) is more than 70%. Further, in data set [3], the clearance came to 31 mL/min/kg and the half-life was 0.55 h. In addition, the 50% inhibitory concentration (IC50) in data set [4] was more than 30 µM.

As for `COCc1cc(C(F)(F)F)ccc1-c1cn2c(C(F)(F)F)nnc2cn1` [Compound 113], in data set [2] (setting [5]), the inhibition at 1 µM was more than 70%. The same compound registered a concentration for half-maximal inhibition (IC50) in data set [4] of 1 to 15 µM.

As for `Fc1cc(OC(F)(F)F)ccc1-c1cn2c(C(F)F)nnc2cn1` [Compound 52], the inhibition at 1 µM in data set [2] (setting [5]) lay within 30 to 70%. In data set [4], this compound had an IC50 of 1 to 15 µM.

As for `FC(F)(F)Oc1ccc(-c2cn3c(C4(F)CC4)nnc3cn2)cc1` [Compound 112], in data set [2] (setting [5]), the inhibition at 1 µM is 30 to 70%. Also, the IC50 in data set [4] was in the range of 1 to 15 µM.

As for `FC1(F)CC(Oc2ccc(-c3ccc4nnc(C(F)(F)F)n4n3)cc2)C1` [Compound 59], the inhibition at 1 µM in data set [2] (setting [5]) lay in the range of 30 to 70%. In data set [3], this compound showed a clearance of 39.8 mL/min/kg and a half-life of 0.8 h. Also, the IC50 in data set [4] is more than 30 µM.

Consider `CC(C)Oc1ccc(-c2cn3c(C(F)(F)F)nnc3cn2)cc1` [Compound 77], for which, in data set [2] (setting [5]), the inhibition at 1 µM was more than 70%. In data set [4], this compound returned a half-maximal inhibitory concentration (IC50) of 1 to 15 µM.
